The target in assay [1] is T1, human EHMT2 913-1193 (Homo sapiens, UniProt Q96KQ7).
T1 construct: recombinant purified human EHMT2 913-1193, Viva; purchased Viva
T1 sequence (Q96KQ7 913-1193): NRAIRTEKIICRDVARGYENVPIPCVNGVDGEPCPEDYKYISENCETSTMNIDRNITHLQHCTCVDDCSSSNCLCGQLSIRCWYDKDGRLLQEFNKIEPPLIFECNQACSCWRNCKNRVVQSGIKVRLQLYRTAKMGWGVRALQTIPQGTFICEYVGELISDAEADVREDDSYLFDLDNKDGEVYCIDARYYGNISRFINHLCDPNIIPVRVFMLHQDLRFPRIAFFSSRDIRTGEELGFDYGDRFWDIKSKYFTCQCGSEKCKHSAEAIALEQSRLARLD
Briefly: EHMT2 enzyme assay on histone peptide substrate (EHMT2 PEP). Format: biochemical. The following applies: Table III; read-out: EHMT2 PEP (IC50 μM). Put shortly: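 10-pt 3-fold series, 50 μM top final, 2% DMSO; 30 min preinc w/ 0.031 nM enzyme; pH 7.5 Bicine/TCEP buffer; ^3H-SAM + biotin-histone peptide, 60 min RT; SAM quench; streptavidin Flashplate capture, TopCount.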

The target in assay [2] is T2, EHMT1 (Homo sapiens, UniProt Q9H9B1).
T2 sequence (Q9H9B1 1-1298): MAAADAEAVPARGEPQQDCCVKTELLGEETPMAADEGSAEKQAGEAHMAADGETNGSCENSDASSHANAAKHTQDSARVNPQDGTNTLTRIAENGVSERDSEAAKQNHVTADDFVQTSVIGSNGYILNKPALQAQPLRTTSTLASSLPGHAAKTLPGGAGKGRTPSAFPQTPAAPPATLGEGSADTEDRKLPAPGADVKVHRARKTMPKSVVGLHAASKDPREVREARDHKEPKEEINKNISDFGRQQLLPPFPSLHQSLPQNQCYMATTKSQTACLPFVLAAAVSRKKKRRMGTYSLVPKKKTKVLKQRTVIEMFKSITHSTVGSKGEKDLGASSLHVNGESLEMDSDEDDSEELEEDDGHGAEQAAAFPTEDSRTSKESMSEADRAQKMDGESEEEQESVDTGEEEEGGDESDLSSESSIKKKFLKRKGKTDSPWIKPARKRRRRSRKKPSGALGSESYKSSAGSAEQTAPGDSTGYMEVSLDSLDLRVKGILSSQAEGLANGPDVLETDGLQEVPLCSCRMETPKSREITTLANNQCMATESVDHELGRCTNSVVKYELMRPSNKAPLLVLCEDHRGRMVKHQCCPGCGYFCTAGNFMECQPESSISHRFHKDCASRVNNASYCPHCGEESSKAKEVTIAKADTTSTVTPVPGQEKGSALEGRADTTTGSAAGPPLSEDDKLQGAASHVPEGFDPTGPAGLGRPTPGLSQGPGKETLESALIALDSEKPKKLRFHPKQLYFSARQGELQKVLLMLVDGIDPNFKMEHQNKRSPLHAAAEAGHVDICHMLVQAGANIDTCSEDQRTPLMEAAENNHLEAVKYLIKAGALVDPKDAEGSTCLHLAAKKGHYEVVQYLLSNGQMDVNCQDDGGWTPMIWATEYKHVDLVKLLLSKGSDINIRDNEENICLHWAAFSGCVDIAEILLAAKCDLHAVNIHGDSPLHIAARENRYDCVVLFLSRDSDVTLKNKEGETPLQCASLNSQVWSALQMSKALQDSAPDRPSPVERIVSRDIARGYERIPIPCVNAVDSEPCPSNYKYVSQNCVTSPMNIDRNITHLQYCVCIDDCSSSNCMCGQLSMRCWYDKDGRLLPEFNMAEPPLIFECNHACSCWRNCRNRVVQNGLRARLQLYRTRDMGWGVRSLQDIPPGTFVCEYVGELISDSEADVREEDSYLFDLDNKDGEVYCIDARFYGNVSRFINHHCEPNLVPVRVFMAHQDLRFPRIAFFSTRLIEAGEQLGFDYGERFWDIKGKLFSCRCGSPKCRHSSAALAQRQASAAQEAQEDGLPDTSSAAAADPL
The assay is described as follows: EHMT1 enzyme assay on peptide substrate (EHMT1 PEP). Format: biochemical. The settings on record: Table III; read-out: EHMT1 PEP (IC50 μM).

One may read the IC50 as the concentration that inhibits the measured activity by half.

Regarding `CNc1ccnc(Nc2ccc(OC)c(OCCCN3CC4CC4C3)c2)n1` (centres unmarked) [Compound 298, N^2-(3-(3-(3-azabicyclo[3.1.0]hexan-3-yl)propoxy)-4-methoxyphenyl)-N^4-methylpyrimidine-2,4-diamine], the IC50 in assay [1] and in assay [2] was less than 0.1 µM each time.

Regarding `CNc1ccnc(Nc2ccc(OC)c(OC[C@H](O)CN3CCCC3)c2)n1` [Compound 299, (R)-1-(2-methoxy-5-((4-(methylamino)pyrimidin-2-yl)amino)phenoxy)-3-(pyrrolidin-1-yl)propan-2-ol], the IC50 in assay [1] and in assay [2] was less than 0.1 µM throughout.

For `CNc1ccnc(Nc2ccc(OC)c(OC[C@@H](O)CN3CCCC3)c2)n1` [Compound 300, (S)-1-(2-methoxy-5-((4-(methylamino)pyrimidin-2-yl)amino)phenoxy)-3-(pyrrolidin-1-yl)propan-2-ol], the half-maximal inhibitory concentration (IC50) in assay [1] and in assay [2] was 0.1 to 1 µM in each case.

As for `CNc1cc(C)nc(Nc2cc(F)c(OC)c(OCCCN3CCCC3)c2)n1` [Compound 301, N2-(3-fluoro-4-methoxy-5-(3-(pyrrolidin-1-yl)propoxy)phenyl)-N4,6-dimethylpyrimidine-2,4-diamine], the IC50 in assay [1] and in assay [2] was more than 10 µM in each case.

As for `CNc1cc(C)nc(Nc2cc(OCCCN3CCCC3)c(OC)cc2F)n1` [Compound 302, N^2-(2-fluoro-4-methoxy-5-(3-(pyrrolidin-1-yl)propoxy)phenyl)-N^4,6-dimethylpyrimidine-2,4-diamine], the 50% inhibitory concentration (IC50) in assay [1] and in assay [2] was 1 to 10 µM throughout.

Take `CNc1cc(C)nc(Nc2cc(OCCCN3CCCC3)c(OC)cn2)n1` [Compound 303, N^2-(5-methoxy-4-(3-(pyrrolidin-1-yl)propoxy)pyridin-2-yl)-N^4,6-dimethylpyrimidine-2,4-diamine]: the IC50 was less than 0.1 µM in assay [1] and 0.1 to 1 µM in assay [2].

On to `COc1cnc(Nc2nccc3[nH]ccc23)cc1OCCCN1CCCC1` [Compound 304], for which the IC50 in assay [1] and in assay [2] was less than 0.1 µM each time.

With `CNc1ccnc(Nc2cc(OCCCN3CCCC3)c(OC)cn2)c1` [Compound 305, N^2-(5-methoxy-4-(3-(pyrrolidin-1-yl)propoxy)pyridin-2-yl)-N^4-methylpyridine-2,4-diamine], the IC50 in assay [1] and in assay [2] was less than 0.1 µM throughout.

For `CNc1nc(C)cc(Nc2cc(OCCCN3CCCC3)c(OC)cn2)n1` [Compound 306, N^4-(5-methoxy-4-(3-(pyrrolidin-1-yl)propoxy)pyridin-2-yl)-N^2,6-dimethylpyrimidine-2,4-diamine], the half-inhibitory concentration (IC50) in assay [1] is 1 to 10 µM; in assay [2], more than 10 µM.

As for `CNc1cc(C)nc(Nc2cc(OCCCN3CCCC3)c(OC)cn2)c1` [Compound 307, N^2-(5-methoxy-4-(3-(pyrrolidin-1-yl)propoxy)pyridin-2-yl)-N^4,6-dimethylpyridine-2,4-diamine], the IC50 in assay [1] and in assay [2] was less than 0.1 µM in each case.

As to `CNc1cc(Nc2cc(OCCCN3CCCC3)c(OC)cn2)cc(C)n1` [Compound 308, N^4-(5-methoxy-4-(3-(pyrrolidin-1-yl)propoxy)pyridin-2-yl)-N^2,6-dimethylpyridine-2,4-diamine], the IC50 in assay [1] and in assay [2] was 0.1 to 1 µM in each case.

As for `CNc1cc(Nc2cc(OCCCN3CCCC3)c(OC)cn2)nc(C)c1F` [Compound 309, 5-fluoro-N^2-(5-methoxy-4-(3-(pyrrolidin-1-yl)propoxy)pyridin-2-yl)-N^4,6-dimethylpyridine-2,4-diamine], the IC50 in assay [1] and in assay [2] was less than 0.1 µM in each case.

As for `COc1cnc(Nc2nc(C)cc3[nH]ccc23)cc1OCCCN1CCCC1` [Compound 310], the IC50 in assay [1] and in assay [2] was 0.1 to 1 µM throughout.

As for `CNc1cc(C)nc(Nc2ccc(OC)c(OCCOC)c2)n1` [Compound 311, N^2-(4-methoxy-3-(2-methoxyethoxy)phenyl)-N^4,6-dimethylpyrimidine-2,4-diamine], the IC50 in assay [1] and in assay [2] was more than 10 µM in each case.

Turning to `CNc1cc(C)nc(Nc2ccc(OC)c(OCCCOC)c2)n1` [Compound 312, N^2-(4-methoxy-3-(3-methoxypropoxy)phenyl)-N^4,6-dimethylpyrimidine-2,4-diamine], the IC50 in assay [1] and in assay [2] was more than 10 µM throughout.

Regarding `CNc1cc(C)nc(Nc2ccc(C3CC3)c(OCCCN3CCCC3)c2)n1` [Compound 313, N^2-(4-cyclopropyl-3-(3-(pyrrolidin-1-yl)propoxy)phenyl)-N^4,6-dimethylpyrimidine-2,4-diamine], the IC50 in assay [1] and in assay [2] was 0.1 to 1 µM each time.

On to `CNc1ccnc(Nc2ccc(C3CC3)c(OCCCN3CCCC3)c2)n1` [Compound 314, N^2-(4-cyclopropyl-3-(3-(pyrrolidin-1-yl)propoxy)phenyl)-N^4-methylpyrimidine-2,4-diamine], for which the IC50 in assay [1] and in assay [2] was 0.1 to 1 µM throughout.

On to `CNc1cc(C)nc(Nc2ccc(OC)c(OC[C@H]3C[C@@H](N(C)C)C3)c2)n1` [Compound 316], for which the IC50 lay within 1 to 10 µM in assay [1] and 0.1 to 1 µM in assay [2].

Take `CNc1cc(C)nc(Nc2ccc(OC)c(O[C@H]3C[C@@H](CN(C)C)C3)c2)n1` [Compound 318, N^2-(3-((1s,3s)-3-((dimethylamino)methyl)cyclobutoxy)-4-methoxyphenyl)-N^4,6-dimethylpyrimidine-2,4-diamine]: the IC50 in assay [1] and in assay [2] was more than 10 µM in each case.

Turning to `CCc1nc(Nc2ccc(OC)c(OCCCN3CCCC3)c2)nc(NC)c1F` [Compound 319, 6-ethyl-5-fluoro-N^2-(4-methoxy-3-(3-(pyrrolidin-1-yl)propoxy)phenyl)-N^4-methylpyrimidine-2,4-diamine], the IC50 in assay [1] and in assay [2] was 0.1 to 1 µM each time.

With `CNc1cc(C2CC2)nc(Nc2ccc(OC)c(OCCCN3CCCC3)c2)n1` [Compound 320, 6-cyclopropyl-N^2-(4-methoxy-3-(3-(pyrrolidin-1-yl)propoxy)phenyl)-N^4-methylpyrimidine-2,4-diamine], the IC50 in assay [1] and in assay [2] was less than 0.1 µM in each case.

On to `COc1cnc(Nc2cnc3ccccn23)cc1OCCCN1CCCC1` [Compound 321, N-(5-methoxy-4-(3-(pyrrolidin-1-yl)propoxy)pyridin-2-yl)imidazo[1,2-a]pyridin-3-amine], for which the IC50 in assay [1] and in assay [2] was 1 to 10 µM in each case.

For `CNc1ccnc(Nc2ccc(OC)c(OCCCN3CC(C)C3)c2)n1` [Compound 423, N^2-(4-methoxy-3-(3-(3-methylazetidin-1-yl)propoxy)phenyl)-N^4-methylpyrimidine-2,4-diamine], the IC50 in assay [1] and in assay [2] was 0.1 to 1 µM in each case.

Regarding `CNc1ccnc(Nc2ccc(OC)c(OCCCN(C)CC3CC3)c2)n1` [Compound 424, N^2-(3-(3-((cyclopropylmethyl)(methyl)amino)propoxy)-4-methoxyphenyl)-N^4-methylpyrimidine-2,4-diamine], the concentration for half-maximal inhibition (IC50) in assay [1] and in assay [2] was 1 to 10 µM throughout.

As for `CNc1ccnc(Nc2ccc(OC)c(OCCCN3CC(OC)C3)c2)n1` [Compound 425, N^2-(4-methoxy-3-(3-(3-methoxyazetidin-1-yl)propoxy)phenyl)-N^4-methylpyrimidine-2,4-diamine], the IC50 in assay [1] and in assay [2] was 0.1 to 1 µM each time.

Values taken from patent publication US20210198277A1, “AMINE-SUBSTITUTED ARYL OR HETEROARYL COMPOUNDS” (Epizyme, Inc., priority 2016, published 2021).
